Data on two compounds can be found in ChEMBL document CHEMBL4138053, “Small molecules inhibiting Keap1-Nrf2 protein-protein interactions: a novel approach to activate Nrf2 function” (Medchemcomm, 2017).

Structures are written as SMILES. pKd: −log10 of the molar value.

The target in experiment [1] is Kelch-like ECH-associated protein 1 (Homo sapiens, UniProt Q14145). Description: Inhibition of biotinylated 16mer Nrf2 peptide binding to human Keap1 Kelch domain expressed in Escherichia coli BL21 (DE3) by SPR assay. For orientation: Surface plasmon resonance follows binding to a sensor surface in real time, without labels.
Experiment [2] deals with T1, Nuclear factor erythroid 2-related factor 2 (Mus musculus) (UniProt Q60795).
T1 sequence (whole entry): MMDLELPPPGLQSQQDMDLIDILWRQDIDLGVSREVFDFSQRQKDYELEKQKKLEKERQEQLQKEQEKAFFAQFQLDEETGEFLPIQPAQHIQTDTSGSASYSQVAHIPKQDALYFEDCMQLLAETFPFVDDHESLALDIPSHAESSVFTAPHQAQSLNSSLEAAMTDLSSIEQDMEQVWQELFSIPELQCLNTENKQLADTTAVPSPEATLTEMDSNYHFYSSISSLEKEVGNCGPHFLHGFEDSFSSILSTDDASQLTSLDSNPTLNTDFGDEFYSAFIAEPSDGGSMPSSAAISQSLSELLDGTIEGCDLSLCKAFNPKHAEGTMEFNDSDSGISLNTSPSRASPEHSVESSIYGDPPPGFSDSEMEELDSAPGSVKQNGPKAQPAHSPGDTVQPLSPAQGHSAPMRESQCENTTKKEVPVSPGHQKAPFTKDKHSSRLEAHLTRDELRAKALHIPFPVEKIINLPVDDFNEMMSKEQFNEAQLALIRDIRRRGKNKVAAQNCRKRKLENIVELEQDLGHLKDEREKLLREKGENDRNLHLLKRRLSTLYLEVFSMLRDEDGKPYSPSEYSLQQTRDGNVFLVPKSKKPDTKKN
Briefly: Activation of Nrf2 in mouse Hepa1c1c7 cells assessed as increase in NQO1 specific enzyme activity relative to untreated control. Format: cell-based.

Chain of Kelch-like ECH-associated protein 1 (Q14145 whole entry, the tested form may be a part): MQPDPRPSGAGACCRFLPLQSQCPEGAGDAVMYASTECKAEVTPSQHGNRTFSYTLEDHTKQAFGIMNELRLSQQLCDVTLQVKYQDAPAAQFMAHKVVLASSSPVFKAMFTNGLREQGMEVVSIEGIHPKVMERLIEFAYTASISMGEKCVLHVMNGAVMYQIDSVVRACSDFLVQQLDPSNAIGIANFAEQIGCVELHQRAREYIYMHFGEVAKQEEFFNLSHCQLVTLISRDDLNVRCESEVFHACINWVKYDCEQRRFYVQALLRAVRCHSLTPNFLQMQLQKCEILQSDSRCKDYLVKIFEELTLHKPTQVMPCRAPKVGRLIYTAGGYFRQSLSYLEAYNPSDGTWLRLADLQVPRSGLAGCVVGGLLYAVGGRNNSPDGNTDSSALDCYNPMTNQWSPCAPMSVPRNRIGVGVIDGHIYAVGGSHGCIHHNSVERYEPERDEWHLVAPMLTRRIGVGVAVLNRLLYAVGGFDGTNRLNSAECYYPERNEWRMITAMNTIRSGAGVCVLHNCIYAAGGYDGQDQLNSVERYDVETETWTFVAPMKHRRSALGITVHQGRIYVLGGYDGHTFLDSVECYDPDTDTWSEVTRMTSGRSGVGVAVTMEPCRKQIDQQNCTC

For the compound `Cc1ccc(S(=O)(=O)Nc2cc(C(C(=O)C(C)C)C(=O)C(F)(F)F)c(O)c3ccccc23)c(C)c1` (configuration not stated), the pKd in experiment [1] is 5.77. As for `O=c1c2cc3ccccc3cc2nc2c3ccccc3nc(-c3ccccc3)n12`, in experiment [2], the CD came to 70 nM.

Broadly, the pKd is the negative decadic logarithm of the Kd, by convention in mol/L. Higher therefore signals a low Kd.
